Measured values taken from ChEMBL document CHEMBL1201862, “PubChem BioAssay data set” (2004).
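Where inhibition never reached the appropriate level, the endpoint shown equals the highest concentration tested. Otherwise, values were interpolated linearly from a five-concentration, 48-hour dose response in 96-well plates. Abbreviation: GI50, concentration required for 50% inhibition of growth.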 Calls of active or inactive are those of the source. Cut-off read from the data, not from the text of the source: active = GI50 up to about 1.1 µM and inactive = higher.

Tests used:
Experiment in all cases: DTP human tumour cell line panel, 48 h
KM12 = test system: KM12
UO-31 = test system: UO-31
Malme-3M = test system: Malme-3M
MDA-MB-231 = test system: MDA-MB-231
OVCAR-8 = test system: OVCAR-8
PC-3 = test system: PC-3
EKVX = test system: EKVX
T47D = test system: T47D
SR = test system: SR
U-251 = test system: U-251
NCI-H522 = test system: NCI-H522
CCRF-CEM = test system: CCRF-CEM
BT-549 = test system: BT-549
NCI-H460 = test system: NCI-H460
MOLT-4 = test system: MOLT-4
NCI-H23 = test system: NCI-H23
MDA-MB-435 = test system: MDA-MB-435
SF-295 = test system: SF-295

Compound	GI50 (KM12)	GI50 (UO-31)	GI50 (Malme-3M)	GI50 (MDA-MB-231)	GI50 (OVCAR-8)	GI50 (PC-3)	GI50 (EKVX)	GI50 (T47D)	GI50 (SR)	GI50 (U-251)	GI50 (NCI-H522)	GI50 (CCRF-CEM)	GI50 (BT-549)	GI50 (NCI-H460)	GI50 (MOLT-4)	GI50 (NCI-H23)	GI50 (MDA-MB-435)	GI50 (SF-295)
O=C(CCc1ccc(O)c(O)c1)NCCc1ccccc1	49.9 µM (inactive)	10.2 µM (inactive)	> 100 µM (inactive)	16.8 µM (inactive)	> 47.5 µM (inactive)	> 37.2 µM (inactive)	> 94.2 µM (inactive)	34.4 µM (inactive)	7.16 µM (inactive)	75 µM (inactive)	5.6 µM (inactive)	3.17 µM (inactive)	31.8 µM (inactive)	> 91.2 µM (inactive)	12.7 µM (inactive)	35.2 µM (inactive)	15.2 µM (inactive)	> 91.2 µM (inactive)
NC(CCc1ccccc1)(C(=O)O)c1ccccc1 (configuration not stated)	> 100 µM (inactive)	> 100 µM (inactive)	> 100 µM (inactive)	> 100 µM (inactive)	> 100 µM (inactive)	> 100 µM (inactive)	> 100 µM (inactive)	> 100 µM (inactive)	> 100 µM (inactive)	> 100 µM (inactive)	> 100 µM (inactive)	> 100 µM (inactive)	> 100 µM (inactive)	> 100 µM (inactive)	> 100 µM (inactive)	> 100 µM (inactive)	> 100 µM (inactive)	> 100 µM (inactive)
CC(=O)N(C(C)=O)c1ncc(-n2nc(-c3ccccc3)cc2-c2ccccc2)c(-c2ccccc2)n1	6.17 µM (inactive)	–	> 10 µM (inactive)	> 10 µM (inactive)	> 10 µM (inactive)	> 10 µM (inactive)	> 10 µM (inactive)	> 10 µM (inactive)	3.5 µM (inactive)	> 10 µM (inactive)	> 10 µM (inactive)	9.75 µM (inactive)	> 10 µM (inactive)	> 10 µM (inactive)	5.22 µM (inactive)	> 10 µM (inactive)	3.52 µM (inactive)	> 10 µM (inactive)
Cc1c(O)nc(-n2[nH]c3c(c2=O)CCCC3)[nH]c1=O	> 100 µM (inactive)	> 100 µM (inactive)	> 100 µM (inactive)	> 100 µM (inactive)	> 100 µM (inactive)	> 100 µM (inactive)	> 100 µM (inactive)	> 100 µM (inactive)	> 100 µM (inactive)	> 100 µM (inactive)	> 100 µM (inactive)	> 100 µM (inactive)	> 100 µM (inactive)	> 100 µM (inactive)	> 100 µM (inactive)	> 100 µM (inactive)	> 100 µM (inactive)	> 100 µM (inactive)
C=C1C(=O)OC2CC(C)C(C(O)CC(C)O)=CCC12 (configuration not stated)	18.6 µM (inactive)	16.2 µM (inactive)	7.74 µM (inactive)	17.8 µM (inactive)	17.1 µM (inactive)	21.6 µM (inactive)	12.5 µM (inactive)	7.08 µM (inactive)	8.13 µM (inactive)	16.3 µM (inactive)	1.61 µM (inactive)	1.71 µM (inactive)	13.4 µM (inactive)	18.9 µM (inactive)	14 µM (inactive)	15.6 µM (inactive)	19.6 µM (inactive)	41.2 µM (inactive)
CCCCCC(=O)OC[n+]1cccc(-c2c(COC(=O)NC(C)C)c(COC(=O)NC(C)C)c3n2CCC3)c1	> 100 µM (inactive)	33.4 µM (inactive)	43.2 µM (inactive)	60.4 µM (inactive)	20.2 µM (inactive)	44.3 µM (inactive)	> 100 µM (inactive)	> 61.8 µM (inactive)	5.78 µM (inactive)	> 61.5 µM (inactive)	15.6 µM (inactive)	6.58 µM (inactive)	38.1 µM (inactive)	16.6 µM (inactive)	10.4 µM (inactive)	28.8 µM (inactive)	> 100 µM (inactive)	59 µM (inactive)
O=C(/C=C(\O)c1cc(-c2ccccc2)n(-c2ccccc2)n1)c1ccccc1	4.48 µM (inactive)	4.27 µM (inactive)	5.09 µM (inactive)	3.49 µM (inactive)	3.2 µM (inactive)	9.29 µM (inactive)	9.59 µM (inactive)	3.7 µM (inactive)	1.12 µM (active)	2.84 µM (inactive)	3.52 µM (inactive)	1.24 µM (inactive)	2.3 µM (inactive)	3.53 µM (inactive)	0.415 µM (active)	9.71 µM (inactive)	3.78 µM (inactive)	8.17 µM (inactive)
Cc1cc(S(=O)(=O)n2ccnc2Oc2ccccc2)c(SSc2cc(Cl)c(C)cc2S(=O)(=O)n2ccnc2Oc2ccccc2)cc1Cl	> 100 µM (inactive)	> 100 µM (inactive)	57.5 µM (inactive)	> 100 µM (inactive)	> 100 µM (inactive)	> 100 µM (inactive)	5.31 µM (inactive)	> 100 µM (inactive)	44 µM (inactive)	> 100 µM (inactive)	5.93 µM (inactive)	–	> 100 µM (inactive)	> 100 µM (inactive)	–	–	> 100 µM (inactive)	–
Cc1nc(C)c(N2CCN(C#N)CC2)c(O)n1	> 100 µM (inactive)	> 100 µM (inactive)	> 100 µM (inactive)	> 100 µM (inactive)	93.3 µM (inactive)	> 100 µM (inactive)	> 100 µM (inactive)	> 100 µM (inactive)	> 100 µM (inactive)	77.8 µM (inactive)	> 100 µM (inactive)	> 100 µM (inactive)	> 100 µM (inactive)	> 100 µM (inactive)	> 100 µM (inactive)	> 100 µM (inactive)	> 100 µM (inactive)	> 100 µM (inactive)
O=C1CSC(c2cccc(Cl)c2)N1c1ccc(-c2ccc(-n3c(-c4ccccc4)nc4ccccc4c3=O)cc2)cc1 (configuration not stated)	22.3 µM (inactive)	21.6 µM (inactive)	46 µM (inactive)	50.6 µM (inactive)	46.1 µM (inactive)	29.8 µM (inactive)	59 µM (inactive)	24.3 µM (inactive)	18.9 µM (inactive)	52.1 µM (inactive)	41.6 µM (inactive)	29.9 µM (inactive)	28.5 µM (inactive)	32.9 µM (inactive)	20.1 µM (inactive)	58.5 µM (inactive)	52.1 µM (inactive)	51.8 µM (inactive)
C/C(=N\N=C1/C(=O)OC(c2ccccc2)=C1C(=O)c1ccccc1)c1ccc([N+](=O)[O-])cc1	86.3 µM (inactive)	44.7 µM (inactive)	37.4 µM (inactive)	79.3 µM (inactive)	35.7 µM (inactive)	65.9 µM (inactive)	36.3 µM (inactive)	42.9 µM (inactive)	6.7 µM (inactive)	41.5 µM (inactive)	27.7 µM (inactive)	25.6 µM (inactive)	25.9 µM (inactive)	56.1 µM (inactive)	19.9 µM (inactive)	92.9 µM (inactive)	46.7 µM (inactive)	45.6 µM (inactive)
CCN(CC)c1ccc(/C=C/C=C2C(=O)NC(=S)NC2=O)cc1	38 µM (inactive)	> 71.8 µM (inactive)	16.6 µM (inactive)	22.9 µM (inactive)	14.3 µM (inactive)	> 69.3 µM (inactive)	> 62.4 µM (inactive)	> 100 µM (inactive)	2.53 µM (inactive)	21 µM (inactive)	–	2.81 µM (inactive)	13.1 µM (inactive)	> 100 µM (inactive)	4.27 µM (inactive)	> 67.5 µM (inactive)	8.67 µM (inactive)	> 83.6 µM (inactive)
Cn1c(=O)c2c(nc3n(Cc4ccccc4)c(=O)c(Br)cn23)n(C)c1=O	> 100 µM (inactive)	> 100 µM (inactive)	–	> 100 µM (inactive)	> 100 µM (inactive)	> 100 µM (inactive)	> 100 µM (inactive)	> 100 µM (inactive)	1.71 µM (inactive)	> 100 µM (inactive)	> 100 µM (inactive)	> 100 µM (inactive)	> 100 µM (inactive)	> 100 µM (inactive)	> 100 µM (inactive)	> 100 µM (inactive)	> 100 µM (inactive)	> 100 µM (inactive)
Nc1nc2cc(CNc3ccc(C(=O)O)cc3)ccc2nc1-c1ccccc1	–	86.5 µM (inactive)	> 100 µM (inactive)	> 100 µM (inactive)	> 100 µM (inactive)	> 100 µM (inactive)	–	35.1 µM (inactive)	> 100 µM (inactive)	> 100 µM (inactive)	> 100 µM (inactive)	> 100 µM (inactive)	> 100 µM (inactive)	> 100 µM (inactive)	69.8 µM (inactive)	88.7 µM (inactive)	> 100 µM (inactive)	> 100 µM (inactive)
CCOC(=O)/C=C/c1cccc(F)c1	> 100 µM (inactive)	> 100 µM (inactive)	> 100 µM (inactive)	> 100 µM (inactive)	> 100 µM (inactive)	> 100 µM (inactive)	> 100 µM (inactive)	> 100 µM (inactive)	> 100 µM (inactive)	> 100 µM (inactive)	> 100 µM (inactive)	> 100 µM (inactive)	> 100 µM (inactive)	> 100 µM (inactive)	> 100 µM (inactive)	> 100 µM (inactive)	> 100 µM (inactive)	–
CSC(SC)(C(=O)O)c1cc(-c2c(Cl)cccc2Cl)no1	–	25.1 µM (inactive)	60.8 µM (inactive)	31.4 µM (inactive)	> 100 µM (inactive)	34 µM (inactive)	54.6 µM (inactive)	28.4 µM (inactive)	33 µM (inactive)	28.4 µM (inactive)	28.5 µM (inactive)	26.4 µM (inactive)	28.8 µM (inactive)	34.9 µM (inactive)	24.5 µM (inactive)	19.2 µM (inactive)	63.4 µM (inactive)	91.2 µM (inactive)
